This is an account of results in ChEMBL document CHEMBL4495564, “Identification of inhibitors of SARS-Cov2 M-Pro enzymatic activity using a small molecule repurposing screen” (2020).

The term IC50 denotes the concentration needed to halve the response being measured. In general, inhibition refers to the change of the read-out against control, counted positive when it falls.

Where “and” joins values, the source holds several entries; their conditions need not be identical. Equal values may be shown once. Where a name gives a salt, the structure may show the parent alone. A value given as a limit tells only on which side of the number the result lay.

For test [1], the target named is Replicase polyprotein 1ab (Severe acute respiratory syndrome coronavirus 2, UniProt P0DTD1). Description: biochemical. It counts as functional.
Test [2] deals with Replicase polyprotein 1ab (Middle East respiratory syndrome-related coronavirus (isolate UnitedKingdom/H123990006/2012) (Betacoronavirus England 1) (Humancoronavirus EMC), UniProt K9N7C7). Briefly: biochemical. It counts as functional.
Sequence of Replicase polyprotein 1ab (Middle East respiratory syndrome-related coronavirus (isolate UnitedKingdom/H123990006/2012) (Betacoronavirus England 1) (Humancoronavirus EMC), UniProt K9N7C7) (K9N7C7 3248-3553 limits assumed): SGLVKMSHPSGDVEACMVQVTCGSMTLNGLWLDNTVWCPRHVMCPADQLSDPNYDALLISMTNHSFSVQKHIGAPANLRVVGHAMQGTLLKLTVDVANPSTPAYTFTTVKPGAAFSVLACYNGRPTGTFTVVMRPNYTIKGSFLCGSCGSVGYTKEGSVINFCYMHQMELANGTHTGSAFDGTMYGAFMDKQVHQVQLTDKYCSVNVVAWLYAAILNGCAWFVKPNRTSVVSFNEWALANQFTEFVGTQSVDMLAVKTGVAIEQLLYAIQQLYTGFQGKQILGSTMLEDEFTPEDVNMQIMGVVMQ
The target in test [3] is Chymotrypsin (Homo sapiens) (UniProt Q99895+P17538+P40313+Q6GPI1). Briefly: Chymotrypsin inhibition percentage at 10 µM by FRET kind of response from peptide substrate. It counts as functional.
Sequence of Chymotrypsin (Homo sapiens) (Q6GPI1 whole entry, looked up, chain 1 of 4): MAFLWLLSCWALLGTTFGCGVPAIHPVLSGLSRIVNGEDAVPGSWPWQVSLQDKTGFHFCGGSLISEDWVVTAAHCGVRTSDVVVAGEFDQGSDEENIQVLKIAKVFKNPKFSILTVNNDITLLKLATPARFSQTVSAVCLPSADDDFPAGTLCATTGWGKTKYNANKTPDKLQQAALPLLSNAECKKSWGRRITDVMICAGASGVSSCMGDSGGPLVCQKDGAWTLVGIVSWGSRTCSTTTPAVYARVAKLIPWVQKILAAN
Sequence of Chymotrypsin (Homo sapiens) (P40313 whole entry, looked up, chain 2 of 4): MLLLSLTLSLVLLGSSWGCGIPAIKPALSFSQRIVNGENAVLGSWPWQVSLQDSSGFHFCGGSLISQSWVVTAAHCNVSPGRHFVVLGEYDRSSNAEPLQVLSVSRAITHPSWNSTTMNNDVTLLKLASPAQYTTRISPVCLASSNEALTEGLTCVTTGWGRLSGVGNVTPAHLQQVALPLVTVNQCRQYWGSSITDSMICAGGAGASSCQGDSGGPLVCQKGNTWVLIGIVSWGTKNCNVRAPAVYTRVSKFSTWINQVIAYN
Sequence of Chymotrypsin (Homo sapiens) (P17538 whole entry, looked up, chain 3 of 4): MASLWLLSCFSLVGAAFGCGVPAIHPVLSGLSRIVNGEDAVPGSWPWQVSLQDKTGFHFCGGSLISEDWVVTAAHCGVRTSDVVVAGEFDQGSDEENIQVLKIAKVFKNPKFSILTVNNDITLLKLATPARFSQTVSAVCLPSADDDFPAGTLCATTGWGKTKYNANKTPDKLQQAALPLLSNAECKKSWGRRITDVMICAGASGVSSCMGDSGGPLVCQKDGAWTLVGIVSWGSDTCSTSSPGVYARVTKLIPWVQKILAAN
Sequence of Chymotrypsin (Homo sapiens) (Q99895 whole entry, looked up, chain 4 of 4): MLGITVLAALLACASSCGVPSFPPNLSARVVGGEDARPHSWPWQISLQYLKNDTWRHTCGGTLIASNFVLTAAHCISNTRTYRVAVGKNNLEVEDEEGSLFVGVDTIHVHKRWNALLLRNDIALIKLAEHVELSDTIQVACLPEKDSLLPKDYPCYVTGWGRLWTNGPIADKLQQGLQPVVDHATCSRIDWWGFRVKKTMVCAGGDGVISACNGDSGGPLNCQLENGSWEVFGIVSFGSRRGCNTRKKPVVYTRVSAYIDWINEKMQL
Test [4] deals with Replicase polyprotein 1ab (Middle East respiratory syndrome-related coronavirus (isolate UnitedKingdom/H123990006/2012) (Betacoronavirus England 1) (Humancoronavirus EMC)) (UniProt K9N7C7). The following applies: at 10 µM.
[5] abbreviates: tested as the Zn salt or complex.

Turning to `[O-][n+]1ccccc1S` [PYRITHIONE], the IC50 in test [1] stood at 50 nM.
For the compound `CC(C)Nc1cccnc1N1CCN(C(=O)c2cc3cc(NS(C)(=O)=O)ccc3[nH]2)CC1` [DELAVIRDINE MESYLATE], the IC50 in test [2] is over 10 µM; in test [1], 3990 nM. For the same compound, the inhibition in test [3] was 9.13%; in test [4], 34%.
On to `CC(C)c1cc(CNc2nc(Nc3cc(C4CC4)[nH]n3)cc(N3CCN(C)CC3)n2)on1` [XL-228], for which the concentration for half-maximal inhibition (IC50) in test [2] is over 10 µM; in test [1], 1490 nM. Also, the inhibition in test [4] amounted to 9%.
For the compound `[O-][n+]1ccccc1S`, the inhibition amounted to 8.11% in test [3] and 42% in test [4] (setting [5]).
In test [2], `CC(C)c1ccc2oc3nc(N)c(C(=O)O)cc3c(=O)c2c1` [AMLEXANOX] had an IC50 of over 10 µM. Further, the inhibition worked out at 4.03% in test [3] and 0% in test [4].
For the compound “PHENYLMERCURIC ACETATE [listing 1 of 2 here]”, the figures for the inhibition in test [3] and in test [4] were 8.59% and 4%, respectively.
As to `C[C@@H]1O[C@@H](O[C@@H]2[C@@H](O)[C@H](OCCc3ccc(O)c(O)c3)O[C@H](CO)[C@H]2OC(=O)/C=C/c2ccc(O)c(O)c2)[C@H](O)[C@H](O)[C@H]1O` [ACETOSIDE], 4540 nM corresponded to half-maximal inhibition in test [1] (IC50).
In test [2], `O=c1sn(-c2cccc3ccccc23)c(=O)n1Cc1ccccc1` [TIDEGLUSIB] came in with an IC50 of over 10 µM. Further, the inhibition in test [3] is 30.7%; in test [4], 22% and 0%.
For the compound `CCOc1cc(C(Nc2cc(C)ccn2)c2ccc3cccnc3c2O)ccc1OC` (configuration not stated), the inhibition in test [3] worked out at 13.3%. The same compound came in with an IC50 in test [1] of under 270 nM.
For Auranofin, the inhibition in test [3] was found to be 8.63%; in test [4], 27%.
In test [2], `O=C(O)c1cc(O)c2c(c1)[C@H]([C@H]1c3cc(C(=O)O)cc(O)c3C(=O)c3c(O[C@@H]4O[C@H](CO)[C@@H](O)[C@H](O)[C@H]4O)cccc31)c1cccc(O[C@@H]3O[C@H](CO)[C@@H](O)[C@H](O)[C@H]3O)c1C2=O` [Sennoside A] had a half-maximal inhibitory concentration (IC50) of over 10 µM. In addition, the inhibition in test [3] was determined as 2.66%; in test [4] it was 42%.
In test [1], `COc1nc2ccc(Br)cc2cc1[C@@H](c1ccccc1)[C@@](O)(CCN(C)C)c1cccc2ccccc12` [BEDAQUILINE] came in with an IC50 of 4360 nM.
On to `O=C1C(Cl)=C(Cl)C(=O)C(Cl)=C1Cl` [CHLORANIL], for which the inhibition in test [3] turned out to be 10.1%. In test [1], this compound displayed a half-inhibitory concentration (IC50) of under 20 nM.
On to AUROTHIOGLUCOSE, for which the concentration for half-maximal inhibition (IC50) was determined as 10 µM in test [2] and 1740 nM in test [1].
In turn, `CCc1ccc(/C=C/C(=O)Nc2ccc(C(C)=O)cc2)o1` returned a 50% inhibitory concentration (IC50) in test [1] of 4950 nM.
In test [2], `Nc1cc2c3ccccc3ccc2c2ccccc12` had a concentration for half-maximal inhibition (IC50) of over 10 µM. Further, the inhibition in test [3] was -3.88%; in test [4], 3%.
Taken in the same sequence, the figures for `CCOC(=O)Cc1ccc(-c2ccccc2)cc1` were over 10 µM, -0.88% and 18%.
Taken in the same sequence, the figures for `NC(CO)C(=O)NNCc1ccc(O)c(O)c1O` (configuration not stated) [BENSERAZIDE HYDROCHLORIDE] were over 10 µM, 0.39% and 9%.
As to `Cc1ccc(S(=O)(=O)/C=C/C#N)cc1`, the concentration for half-maximal inhibition (IC50) was over 10 µM in test [2] and 820 nM in test [1]. In test [4], the inhibition was 17%.
For the compound `Cc1ccc(-n2sc(=O)n(Cc3ccc(F)cc3)c2=O)cc1`, the IC50 in test [2] is over 10 µM; in test [1], 230 nM. For the same compound, the inhibition in test [3] came to 24.5%; in test [4], 35%.
In the case of `Oc1cc2c(cc1O)C(c1ccccc1)CNCC2` (configuration not stated), in test [2], the half-maximal inhibitory concentration (IC50) is over 10 µM. In addition, the results for the inhibition in test [3] and in test [4] were 8.97% and 5%, respectively.
As for `Cc1c(OCC(F)(F)F)ccnc1C[S+]([O-])c1nc2ccccc2[nH]1` (configuration not stated) [LANSOPRAZOLE], the values for the concentration for half-maximal inhibition (IC50) in test [2] and in test [1] were over 10 µM and 390 nM, respectively. In addition, the inhibition in test [3] was 6.43% and 5.66%; in test [4], 47%.
In the case of `Sc1nnc(Nc2ccccc2)s1`, in test [3], the inhibition was 4.67%. In addition, in test [1], the IC50 was 390 nM.
As to `C[C@@H]1O[C@@H](Oc2c(-c3cc(O)c(O)c(O)c3)oc3cc(O)cc(O)c3c2=O)[C@@H](O)[C@H](O)[C@H]1O`, the IC50 in test [1] was determined as 3660 nM.
As for `COc1cccc2c1C(=O)c1c(O)c3c(c(O)c1C2=O)C[C@@](O)(/C(CO)=N/NC(=O)CCCCCN1C(=O)C=CC1=O)C[C@@H]3O[C@H]1C[C@H](N)[C@H](O)[C@H](C)O1` [ALDOXORUBICIN], the figures for the IC50 in test [2] and in test [1] were over 10 µM and 580 nM, respectively. Further, the inhibition in test [4] was 1%.
With `[O-][n+]1ccccc1S` [PYRITHIONE ZINC], the figures for the IC50 in test [2] (setting [5]) and in test [1] were over 10 µM and 2460 nM, respectively.
The compound `O=C(c1ccc(/C=C/c2n[nH]c3ccccc23)cc1)N1CCNCC1` [KW-2449] registered an IC50 in test [2] of 3.6 µM. For the same compound, the inhibition in test [3] is 3.6%.
Compound CISPLATIN gave an IC50 in test [1] of 3820 nM.
Take `Cc1ccc(S(=O)(=O)N[C@@H](Cc2ccccc2)C(=O)CCl)cc1` [TPCK]: the inhibition in test [3] was determined as 39.6%. The compound further registered an IC50 in test [1] of 1370 nM.
As to `C/N=c1/nc(-c2ccccc2)n(-c2ccccc2)s1`, the 50% inhibitory concentration (IC50) in test [2] was over 10 µM; in test [1], 980 nM. Further, the inhibition in test [4] was 44%.
Regarding `Cc1c(-c2cnccn2)ssc1=S` [OLTIPRAZ], the IC50 in test [2] is over 10 µM; in test [1], 620 nM. For the same compound, the inhibition in test [3] was 9.89%; in test [4], 10% and 0%.
Take hemin: the results for the inhibition in test [3] and in test [4] were 6.35% and 7%, respectively.
For the compound `O=C1C=Cc2cc(Br)ccc2C1=O`, the figures for the half-maximal inhibitory concentration (IC50) in test [2] and in test [1] were over 10 µM and 160 nM, respectively. Also, the inhibition in test [3] was 8.47%; in test [4], 9% and 0%.
For `Oc1cc(CNC(=S)/C=C/c2cc(O)c(O)c(Br)c2)cc(O)c1O`, the figures for the IC50 in test [2] and in test [1] were over 10 µM and 480 nM, respectively. In test [4], the inhibition was 20%.
Consider `CCOC(=O)c1c(N)sc(-c2ccccc2)c1C`, for which the inhibition in test [3] amounted to 5.82%. In addition, the IC50 in test [1] is 3190 nM.
For `Sc1nnnn1-c1ccccc1` the same measures were 4.48% and 2360 nM.
With `O=C(O)[C@@H](S)[C@@H](S)C(=O)O`, the results for the IC50 in test [2] and in test [1] were over 10 µM and 1720 nM, respectively. Besides, the inhibition in test [4] worked out at 0%.
Taken in the same sequence, the figures for `C[C@@](Cc1ccc(O)c(O)c1)(NN)C(=O)O` [CARBIDOPA ANHYDROUS] were over 10 µM, 3550 nM and 0%.
As to `CN1CCN(C2=C(Cl)C(=O)N(c3ccc(Cl)c(Cl)c3)C2=O)CC1`, the inhibition in test [3] came out at 9.67%. Also, the IC50 in test [1] is under 1230 nM.
Take `CC(CN1CC(=O)NC(=O)C1)N1CC(=O)NC(=O)C1` (configuration not stated) [RAZOXANE]: the IC50 in test [2] was over 10 µM; in test [1], 3190 nM. The inhibition was -0.92% in test [3] and 7% in test [4].
Regarding `Nc1nc(S)c2ncn(C3OC(CO)C(O)C3O)c2n1` (configuration not stated), in test [3], the inhibition is 7.56%. The compound also came in with an IC50 in test [1] of 1080 nM.
Taken in the same sequence, the figures for `O=c1c(O)cccc2cc(O)c(O)c(O)c12` [PURPUROGALLIN] were 9.33% and 4580 nM.
In test [2], `O=C1C(Cl)=C(N2CCOCC2)C(=O)N1c1ccc(Cl)c(Cl)c1` came in with an IC50 of over 10 µM. In addition, the inhibition in test [3] turned out to be 7.24%; in test [4], 0%.
In the case of MERBROMIN [listing 1 of 2 here], the 50% inhibitory concentration (IC50) in test [2] is over 10 µM; in test [1], 240 nM.
Taken in the same sequence, the figures for “PHENYLMERCURIC ACETATE [listing 2 of 2 here]” were over 10 µM and 10 nM.
In test [2], `O=C(O[C@@H]1Cc2c(O)cc(O)cc2O[C@@H]1c1cc(O)c(O)c(O)c1)c1cc(O)c(O)c(O)c1` [EPIGALOCATECHIN GALLATE] yielded an IC50 of over 10 µM. The inhibition was -0.5% in test [3]; 10% and 16% in test [4].
For the compound `O=C(/C=C/c1ccc(O)c2c1[C@@H](C(=O)O[C@H](Cc1ccc(O)c(O)c1)C(=O)O)[C@H](c1ccc(O)c(O)c1)O2)O[C@H](Cc1ccc(O)c(O)c1)C(=O)O`, the IC50 in test [1] came out at 3420 nM.
MERBROMIN [listing 2 of 2 here]: the inhibition worked out at 10.5% in test [3] and 0% in test [4].
As to `CC(C)(C)OC(=O)NCCc1nnc(S(=O)(=O)Cc2ccc(Cl)cc2Cl)o1`, the inhibition in test [3] is 103%. This compound registered a 50% inhibitory concentration (IC50) in test [1] of 4220 nM.
Turning to `Nc1ccc2cc3ccc(N)cc3nc2c1` [PROFLAVINE], the IC50 is over 10 µM in test [2] and 360 nM in test [1]. Also, in test [3], the inhibition was 16.3%.
`N#CSc1cc(SC#N)c(N)nc1N` came in with a half-inhibitory concentration (IC50) in test [2] of 2.3 µM. The inhibition in test [3] worked out at 4.59%.
`Cc1ccccc1N(C)C(=O)c1ccc([S+]([O-])c2nccs2)c([N+](=O)[O-])c1` (configuration not stated) returned a concentration for half-maximal inhibition (IC50) in test [2] of over 10 µM. The figures for the inhibition in test [3] and in test [4] were 0.13% and 7%, respectively.
Take `CN1CCN(C(=O)c2ccc(-c3ccc4c(C=O)c(O)ccc4c3)s2)CC1`: in test [3], the inhibition was 9.67%. Further, the IC50 in test [1] stood at 1330 nM.
With `S=C(S)N1CCCC1` [PYRROLIDINE DITHIOCARBAMIC ACID, AMMONIUM SALT], the IC50 in test [2] is over 10 µM; in test [1] it was 210 nM. Also, the inhibition in test [4] is 42%.
Compound `C[n+]1c2cc(N)ccc2cc2ccc(N)cc21` [EUFLAVINE] returned an IC50 in test [1] of 4980 nM.
For ACRIFLAVINE HYDROCHLORIDE, the concentration for half-maximal inhibition (IC50) in test [2] was determined as 10 µM; in test [1], 1930 nM.
Turning to `C/C=C1\C(OC2OC(CO)C(O)C(O)C2O)OC=C(C(=O)OC)C1CC(=O)OCCc1ccc(O)c(O)c1` (configuration not stated), the IC50 is over 10 µM in test [2] and 3380 nM in test [1]. Moreover, the inhibition in test [4] was found to be 0%.
For `C=C1C(=O)[C@]23[C@H](O)[C@H]1CC[C@@H]2[C@@]12CO[C@]3(O)C[C@@H]1C(C)(C)CC[C@@H]2O`, it took 2570 nM to reach half-maximal inhibition in test [1] (IC50).
`O=c1c(O)c(-c2cc(O)c(O)c(O)c2)oc2cc(O)cc(O)c12` [MYRICETIN]: the IC50 in test [2] is over 10 µM. The figures for the inhibition in test [3] and in test [4] were 3.78% and 5%, respectively.
